Experimental data reported in patent US9951047B2, “Salt of monocyclic pyridine derivative and crystal thereof” (Eisai R&D Management Co., Ltd., priority 2014, dated 2018).

Legend:
[1] = system: SNU-16 subcutaneous xenograft; assay: Antitumor effect in SNU-16 subcutaneous xenograft model in mice; assay type: in vivo; settings: nude mice, tumor volume on last day
Method: Human stomach cancer cell line SNU-16, which had been cultured in an RPMI-1640 medium containing 10% FBS, and penicillin/streptomycin, were adjusted to a concentration of 1×10^8 cells/mL with Hanks' Balanced Salt Solution (GIBCO #24020) to prepare a cell suspension, and the suspension was mixed with MATRIGEL (BD Biosciences, Cat#354234) in a ratio of 1:1 to prepare a cell suspension in a concentration of 5×10^7 cells/mil. The cell suspension was inoculated in a volume of 100 μL into a subcutaneous part of a right flank of nude mice, 6 to 7 weeks of ages (BALB/cAJcl-nu/nu, female, Clea Japan Inc.). Seven days after cell inoculation, the shortest diameter and the longest diameter of a tumor in each mouse were measured by using an electronic digital caliper (Digimatic™ caliper, Mitutoyo Corporation), so as to calculate the volume of the tumor in accordance with the following calculation formula: Tumor volume (mm^3)=Longest diameter (mm)×Shortest diameter (mm)×Shortest diameter (mm)/2
On the basis of the volumes of tumors obtained on the first day of administration, the nude mice were grouped such that averages of the tumor volumes were substantially equal among the groups. Each test substance was dissolved in DMSO, Tween 80 was added thereto to prepare a solution in a 10-fold concentration and the thus prepared solution was stored at the freezer before use. Immediately before the administration, the stock solution was diluted with a 5% glucose solution to obtain a final administration solution (in which a ratio in % among DMSO, Tween 80 and the 5% glucose solution was 3.5:6.5:90). Each evaluation sample was orally administered to test substance administration group at a volume of 20 mL/Kg once a day continuously for 11 days, and in a control group, an administration solvent was orally administered under the same conditions. Incidentally, the experiment was conducted on groups each consisting of 5 mice.
With respect to each of the control group and test substance administration group, a ratio of the weight measured on the final day to the weight measured on the first day (relative body weight: RBW) was calculated. If a ratio of the RBW of the test substance administration group/the RBW of the control group is 0.9 or more, the corresponding test substance administration group was defined as a well-tolerated. In the test substance administration group thus defined as well-tolerated, a ratio of the tumor volume of the test substance-dosing group to the tumor volume of the control group obtained on the last day (T/C) (%) was calculated, and shown in Table 3.

[2] = system: human stomach cancer cell line SNU-16; assay: cells; settings: SNU-16, 72 h, read-out: SNU-16 (IC50 (nM))
Method: Then, 10 μL of Cell Counting Kit-8 (Dojindo Laboratories, CK04) was added to each well, and the resultant was incubated for 1 to 2 hours in a 5% CO2 incubator (37° C.) to cause a color reaction. The absorbance value was measured with ENVISION™ (PerkinElmer Co., Ltd.) at 450 nm. Absorbance value of the wells without adding the test substance was defined as 100% and the absorbance value of the wells containing no cells was defined as 0%. Then, an absorbance ratio in the presence of the test substance was calculated.

CNC(=O)n1ccc2cc(Oc3ccnc(NC(=O)c4ccc(C5CCN(CCO)CC5)cc4)c3)c(OCCOC)cc21 [Compound (I), 5-({2-[({4-[1-(2-hydroxyethyl)piperidin-4-yl]phenyl}carbonyl)amino]pyridin-4-yl}oxy)-6-(2-methoxyethoxy)-N-methyl-1H-indole-1-carboxamide]
T/C (%) ([1]; 6.25 mg/kg orally once a day for 11 days): 49%
T/C (%) ([1]; 12.5 mg/kg orally once a day for 11 days): 26%
T/C (%) ([1]; 25 mg/kg orally once a day for 11 days): 16%
T/C (%) ([1]; 50 mg/kg orally once a day for 11 days): 7%
IC50 [2]: 4.2 nM
